Test results: US20240228542A1, “LYTIC DOMAIN FUSION CONSTRUCTS, CHECKPOINT INHIBITORS, AND METHODS OF MAKING AND USING SAME” (A28 Therapeutics Inc., priority 2020, published 2024)

Tests used:
[1] = system: MDA-MB-435S.luc xenograft; test: MDA-MB-435S.luc xenograft, LHRH fusion constructs; format: in vivo, Nu/Nu mice
Method: For LHRH fusion constructs, the mouse xenograft model for breast cancer was used. In brief. Nu/Nu female mice, outbred strain, age 5 weeks (Charles River) were injected subcutaneously with a MDA-MB-435S.luc/Matrigel suspension (1×10^6 cells). Treatment was started on day 21 after tumor cell injection and continued on day 26 and 29. The doses for weekly fusion construct injections were 2, 0.2 and 0.02 mg/kg body weight, given as a bolus single injection. All mice were necropsied 34 days after tumor cell injection-baseline values for tumor weights were obtained by sacrificing 8 mice at treatment start. Primary tumors, liver, kidney, pancreas, heart, lung, and spleen were collected and prepared for histological evaluation in formalin. Tumor weights were recorded at necropsy, part of the tumors were frozen at −80 ° C. for luciferase assay determination.
Characteristics of tumors at necropsy are summarized in FIG. 10; (A) tumor weight, (B) changes of tumor weights compared to baseline, (C) total number of live tumor cells, (D) changes of total live tumor cells compared to baseline, and (E) bodyweights at baseline and necropsy. Viability of tumor cells was determined at the end of the study when tumors were measured for luciferase activity. Treatment efficacy was calculated as difference between measurements at the beginning of treatment compared to the measurement at the end of study (FIG. 10B and 10D).

[2] = system: MDA-MB-435 cells; test: Fluorescence microscopy of MDA-MB-435 cells; format: cell-based, human; conditions: 10 μM, 5 minutes exposure
Method: In brief, human melanoma cells (MDA-MB-435, passage #252) were seeded onto culture dishes. The following markers were introduced prior to adding EP-100; DRAQ5™(Alexis Corporation)—blue—was used for staining of the nucleus and Mito Tracker® Red CMXRos (M7512) (Molecular Probes, Inc. OR) were applied for visualizing intact mitochondria. Cell membranes were stained with wheat germ alexa fluor green conjugates (Molecular Probes, Inc. OR).
Cells were loaded first with Mitotracker dye, according to the manufacturer's recommendation. Phor 18-LHRH (338613) reconstituted in saline was added at a final concentration of 10 μM and incubated for 5-10 minutes. Culture dishes with saline only served as controls. The supernatant was removed, and the remaining cells prepared for fluorescence microscopy imaging.

[3] = system: MDA-MB-435S xenograft; test: MDA-MB-435S xenograft, kinetics after a single injection; format: in vivo, Nu/Nu mice; conditions: 0.2 and 2 mg/kg
Method: In brief, Nu/Nu female mice, outbred strain, age 5 weeks (Charles River), were injected (s.c.) into the interscapular region with a MDA-MB-435S (passage #249)/Matrigel suspension (2.4×10^6 cells/mouse) as described in Example 10. Phor 18-LHRH (338613) (ID: 338613 lot #P080401) (0.2, and 2 mg/kg) were reconstituted in USP saline prior to dosing. The doses were given as a single bolus intravenous injection via lateral tail vein.
Mice were sacrificed 1, 2 and 16 hours after treatment with Phor 18-LHRH (338613) or saline. At study endpoint body weight, tumor weights were determined, and tumors were fixed in phosphate buffered 10% formalin.

[4] = system: 2C12; test: Cytotoxicity in 2C12 murine ovarian cancer cells (24 h); format: cell-based; conditions: 2C12, 24 h; read-out: In vitro activity (IC50)
Method: Murine ovarian cancer cell lines (ID8, IG10, IF5, and 2Cl2) were grown in RPMI 1640 media with 10% Fetal Bovine Serum. Cells were typically seeded (3000 cells per well) into 96 well plates and media was replaced after 48 hours of incubation. […] Phor18-LHRH was provided in lyophilized form was dissolved in saline and added to cells. The duration of incubation was 24 h at 37° C. Cell viability was assessed after 24 hours using a luminometric assays (Promega, CellTiter-0Glo 2.0, G9243). Controls contained saline or 0.1% triton as reference for 0 and 100% cell death, respectively.
Data were processed and analyzed using GraphPad Prism version 7.00 for Windows (GraphPad Software, San Diego California). Statistical analysis for significance was determined by a two-tailed Student's T-test. Each study was conducted to achieve an […] of at least 6.
In vitro activities were expressed as IC50 values for each cell line, time point and compound tested that were calculated using the Hill equation (Graph Pad Prizm software).

[5] = system: 242; test: Cytotoxicity in cell line 242 (Table 7); format: cell-based, murine; conditions: 242, 24 h; read-out: In vitro activity (IC50)
[6] = system: PD-L1; test: PD-L1 expression in ID8 and IG10 cells after EP-100 (RT-PCR, Western blot); format: cell-based, murine
Method: To determine the potential role of EP-100 in immune activation, the effect on PD-L1 expression in murine ovarian cancer cells was determined in the presence of EP-100. […] PD-L1 mRNA was increased with treatment with as low as 0.5 μm EP-100 for 4 hours, and PD- L1 protein was increased after 6 hours of treatment.

[7] = system: EMT-6 murine mammary carcinoma; test: EMT-6 murine mammary carcinoma syngeneic model, tumor growth delay; format: in vivo, BALB/c mice; conditions: for median TTE: control 16.5 days
Method: The present study consisted of six efficacy groups (n=10) and three sampling groups (n=5) of female BALB/c mice implanted with EMT-6 tumor cells (mean volume: 61-85 mm^3). Dosing was initiated on Day (D) 1 of the study, unless otherwise noted. […] Anti-CTLA-4 was administered i.p. at 100 μg/animal on Day 2 and 50 μg/animal on Day 5 and Day 8.
Group 1 mice served as controls and received i.v. saline (vehicle), qod×to end. Group 2 received anti-CTLA-4. Group 3 received Phor 18-LHRH at 0.4 μg/animal qod×8 followed by 20 μg/animal qod to end (starting on Day 17). […] Group 5 received Phor 18-LHRH at 0.4 μg/animal q.o.d.×8 followed by 20 μg/animal qod to end (starting on Day 17) in combination with anti-CTLA-4.
The study endpoint was a tumor volume of 2000 mm^3 or 45 days, whichever came first. Tumor measurements were taken twice weekly until D45 with individual animals exiting the study upon reaching the tumor volume endpoint.
Efficacy was determined from tumor growth delay (TGD), the increase in median time-to-endpoint (TTE) in treated versus control mice, and from comparison of survival curves using logrank analysis. Response was additionally evaluated based on the number of study survivors, partial regression (PR) and complete regression (CR) responses, and logrank significance of differences in survival. Tolerability of the various treatments was assessed by body weight (BW) measurements and frequent observation for clinical symptoms and treatment-related (TR) side effects.
Four sampling groups consisting of 5 animals each were included in this study: saline controls. […] Animals in these groups were sacrificed on day 17, tumors were excised, formalin fixed and paraffin embedded to obtain H&E stained sections for histological evaluation of the tumors. Tumor samples were collected for analysis and stained with hematoxylin & cosin for pathological evaluation.

[8] = Phor18-LHRH at 0.4 μg and 20 μg/animal (alone or with anti-CTLA-4)
[9] = Phor18-LHRH at 10 μg and 60 μg/animal (alone or with anti-CTLA-4)

KFAKFAKKFAKFAKKFAKQHWSYGLRPG [Phor18-LHRH]
treatment efficacy (tumor weight, live tumor cells) ([1]; 0.02, 0.2 and 2 mg/kg, vs baseline, saline and Phor21-βCG-ala): Equally effective as Phor21-βCG-ala | tumor volume ([1]; during treatment and after 30 days): smallest tumor volumes | concentrations resulting in tumor weights similar to baseline ([1]; mouse, in vivo): 0.2 mg/kg | In vivo Performance compared to 33 ([1]; tumor weight and live tumor cell reduction vs baseline compared to peptide 33, LHRH construct study): 1 | plasma membrane, fluorescence microscopy [2]: disintegration of the plasma membrane | time to destruction of tumors after injection [3]: 1 h | IC50 [4]: 1020 nM | IC50 [5]: 1380 nM | lowest concentration increasing PD-L1 mRNA ([6]; 4 hours): 0.5 μm | PD-L1 mRNA and protein levels ([6]; ID8 and IG10 cells, protein after 6 hours): both PD-L1 mRNA and protein levels were increased | TGD [7, 8]: 6% | median TTE [7, 8]: 17.5 days | TGD [7, 9]: 5% | median TTE [7, 9]: 17.4 days | histological evaluation of tumors ([7]; animals sacrificed on day 17): inflammatory immune cell infiltration and necrosis
